Test results as given in ChEMBL document CHEMBL1121775, “Synthesis and antimalarial effects of N2-aryl-N4-[(dialkylamino)alkyl]- and N4-aryl-N2-[(dialkylamino)alkyl]-2,4-quinazolinediamines” (J Med Chem, 1981).
Where “and” joins values, the source holds several entries; their conditions need not be identical. Identical values can stand only once.

Key:
Plasmodium berghei [1] = assay: Antimalarial effect against trophozoite-induced Plasmodium berghei in mice (Mus musculus) after 40 mg/kg subcutaneous dose; assay type: functional
Plasmodium berghei [2] = assay: Antimalarial activity against trophozoite-induced Plasmodium berghei in mice (Mus musculus); assay type: functional
Plasmodium berghei [3] = assay: Antimalarial effect against trophozoite-induced Plasmodium berghei in mice (Mus musculus) after 20 mg/kg subcutaneous dose; assay type: functional
Mus musculus [4] = assay: Number of mice cured at a dose of 320 mg/kg sc; assay type: functional; details: route subcutaneous
Plasmodium berghei [5] = assay: Antimalarial effect against trophozoite-induced Plasmodium berghei in mice (Mus musculus) at 80 mg/kg subcutaneous dose; assay type: functional
Plasmodium berghei [6] = assay: Antimalarial effect against trophozoite-induced Plasmodium berghei in mice (Mus musculus) at 160 mg/kg subcutaneous dose; assay type: functional
Mus musculus [7] = assay: Number of mice cured at a subcutaneous dose of 640 mg/kg.; assay type: functional
Plasmodium berghei [8] = assay: Antimalarial effect against trophozoite-induced Plasmodium berghei in mice (Mus musculus) at 320 mg/kg subcutaneous dose; assay type: functional
[9] = The ratio of SD90 of the quinine hydrochloride, to the SD90 of the test substance for the Dose of 9.3 mg/kg; assay type: functional
Plasmodium berghei [10] = assay: (§1) Antimalarial effect against trophozoite-induced Plasmodium berghei in mice (Mus musculus) at 640 mg/kg subcutaneous dose; assay type: functional
[11] = The ratio of SD90 of the quinine hydrochloride, to the SD90 of the test substance for the Dose of 9.8 mg/kg; assay type: functional
[12] = The ratio of SD90 of the quinine hydrochloride, to the SD90 of the test substance for the Dose of 120 mg/kg; assay type: functional
Mus musculus [13] = assay: Number of mice cured at a dose of 640 mg/kg sc; assay type: functional; details: route subcutaneous
[14] = The ratio of SD90 of the quinine hydrochloride, to the SD90 of the test substance for the Dose of 9 mg/kg; assay type: functional
Mus musculus [15] = assay: (§2) Number of mice cured at a dose of 80 mg/kg sc; assay type: functional; details: route subcutaneous
Mus musculus [16] = assay: Number of mice cured at a dose of 160 mg/kg sc; assay type: functional; details: route subcutaneous
Mus musculus [17] = assay: Antimalarial effect against trophozoite-induced Plasmodium berghei in mice (Mus musculus) at dosage of 80 mg/kg after subcutaneous administration; assay type: functional
Plasmodium berghei [18] = assay: Antimalarial activity against trophozoite-induced Plasmodium berghei in mice (Mus musculus) at 160 mg/kg subcutaneous dose; assay type: functional
Mus musculus [19] = assay: Number of toxic deaths at a dose of 640 mg/kg; assay type: toxicity, organism-based; parameters: dose 640 mg/kg; details: in vivo
[20] = The ratio of SD90 of the quinine hydrochloride, to the SD90 of the test substance for the Dose of >37 mg/kg; assay type: functional
[21] = The ratio of SD90 of the quinine hydrochloride, to the SD90 of the test substance for the Dose of 10.5 mg/kg; assay type: functional
Mus musculus [22] = assay: Antimalarial effect against trophozoite induced Plasmodium berghei in mice (Mus musculus) at dosage of 640 mg/kg after subcutaneous administration; No. of mice (Mus musculus) surviving after 60 days 3; assay type: functional
[23] = The ratio of SD90 of the quinine hydrochloride, to the SD90 of the test substance for the Dose of 17.5 mg/kg; assay type: functional
[24] = The ratio of SD90 of the quinine hydrochloride, to the SD90 of the test substance for the Dose of >69 mg/kg; assay type: functional
[25] = The ratio of SD90 of the quinine hydrochloride, to the SD90 of the test substance for the Dose of 7.8 mg/kg; assay type: functional
Mus musculus [26] = assay: Number of mice cured at a subcutaneous dose of 160 mg/kg.; assay type: functional
Mus musculus [27] = assay: Number of mice cured at a subcutaneous dose of 320 mg/kg.; assay type: functional
[28] = The ratio of SD90 of the quinine hydrochloride, to the SD90 of the test substance for the Dose of 91 mg/kg; assay type: functional
[29] = as §2; assay type: functional; details: route subcutaneous
Mus musculus [30] = assay: (§3) Number of mice cured at a dose of 40 mg/kg sc; assay type: functional; details: route subcutaneous
[31] = as §3; assay type: functional; details: route subcutaneous
[32] = The ratio of SD90 of the quinine htdrocloride, to the SD90 of the test substance for the Dose of 8.5 mg/kg; assay type: functional
Mus musculus [33] = assay: Antimalarial effect against trophozoite induced Plasmodium berghei in mice (Mus musculus) at dosage of 40 mg/kg after subcutaneous administration; assay type: functional
Mus musculus [34] = assay: Antimalarial effect against trophozoite-induced Plasmodium berghei in mice (Mus musculus) at dosage of 160 mg/kg after subcutaneous administration;; assay type: functional
[35] = The ratio of SD90 of the quinine hydrochloride, to the SD90 of the test substance for the Dose of 25 mg/kg; assay type: functional
Plasmodium berghei [36] = assay: as §1; assay type: functional; remark: listed apart in the source
Mus musculus [37] = species: Mus musculus; assay: Antimalarial effect against trophozoite-induced Plasmodium berghei in mice (Mus musculus); assay type: functional
Mus musculus [38] = assay: Number of toxic deaths at dose of 640 mg/kg; assay type: toxicity, organism-based; parameters: dose 640 mg/kg; details: in vivo
Mus musculus [39] = assay: Number of toxic deaths at doae of 320 mg/kg; assay type: toxicity, organism-based; parameters: dose 320 mg/kg; details: in vivo
[40] = The ratio of SD90 of the quinine hydrochloride, to the SD90 of the test substance for the Dose of 24 mg/kg; assay type: functional
[41] = The ratio of SD90 of the quinine hydrochloride, to the SD90 of the test substance for the Dose of >147 mg/kg; assay type: functional

CN(C)C1CCC(Nc2nc(Nc3cc(Cl)cc(Cl)c3)nc3ccccc23)CC1 (stereo in doubt; 25)
MST (Plasmodium berghei [1]; 40 mg/kg): 9.7 days and 9.3 days
SD90 (Plasmodium berghei [2]): 9.3 mg/kg/day
MST (Plasmodium berghei [3]; 20 mg/kg): 5.1 days
No. of cured (Mus musculus [4]): 4
MST (Plasmodium berghei [5]; 80 mg/kg): 10.9 days
MST (Plasmodium berghei [6]; 160 mg/kg): 17.5 days and 16.9 days
No. of cured (Mus musculus [7]): 5
MST (Plasmodium berghei [8]; 320 mg/kg): 24.9 days
Ratio [9]: 8

CN1CCCC1CCNc1nc(Nc2ccc(Cl)cc2)nc2ccccc12 (stereo unspecified)
MST (Plasmodium berghei [1]; 40 mg/kg): 1.1 days and 0.8 days
SD90 (Plasmodium berghei [2]): 9.8 mg/kg/day
MST (Plasmodium berghei [3]): 0.8 days
MST (Plasmodium berghei [5]): 4.4 days
MST (Plasmodium berghei [10]; 640 mg/kg): 12.2 days and 22.3 days
MST (Plasmodium berghei [6]; 160 mg/kg): 10.7 days and 10.2 days
No. of cured (Mus musculus [7]; 640 mg/kg): 2 and 3
MST (Plasmodium berghei [8]): 14.4 days
Ratio [11]: 7.6

CCN(CC)CCNc1nc(Nc2cc(Cl)cc(Cl)c2)nc2ccccc12
SD90 (Plasmodium berghei [2]): 120 mg/kg/day
MST (Plasmodium berghei [3]): 0.2 days
MST (Plasmodium berghei [5]): 3.2 days
MST (Plasmodium berghei [10]; 640 mg/kg): 22.1 days and 20.8 days
MST (Plasmodium berghei [6]; 160 mg/kg): 8.2 days and 9 days
Ratio [12]: 0.6
No. of survivals (Mus musculus [13]; 640 mg/kg): 2 and 3
MST (Plasmodium berghei [8]): 12.2 days

CCN(CC)C1CCC(Nc2nc(Nc3cc(Cl)cc(Cl)c3)nc3ccccc23)CC1 (stereo in doubt; 34)
MST (Plasmodium berghei [1]; 40 mg/kg): 7.7 days and 7.5 days
SD90 (Plasmodium berghei [2]): 9 mg/kg/day
Ratio [14]: 8.3
MST (Plasmodium berghei [3]; 20 mg/kg): 2.3 days
No. of cured (Mus musculus [4]; 320 mg/kg): 5 and 3
No. of cured (Mus musculus [15]): 1
No. of cured (Mus musculus [7]): 5
No. of cured (Mus musculus [16]): 2
MST (Mus musculus [17]; 80 mg/kg): 13.4 days
MST (Plasmodium berghei [18]; 160 mg/kg): 26.9 days and 23.4 days

c1ccc2c(NCCCN3CCCC3)nc(Nc3ccncc3)nc2c1
MST (Plasmodium berghei [1]): 0.3 days
SD90 (Plasmodium berghei [2]): >37 mg/kg/day
No. of toxic deaths (Mus musculus [19]): 5 and 2
Ratio [20]: <2
MST (Plasmodium berghei [18]): 0.9 days

CN1CCCC1CCNc1nc(Nc2ccc(Cl)c(Cl)c2)nc2ccccc12 (stereo unspecified)
MST (Plasmodium berghei [1]): 4 days
SD90 (Plasmodium berghei [2]): 10.5 mg/kg/day
MST (Plasmodium berghei [3]; 20 mg/kg): 3 days and 3.9 days
No. of cured (Mus musculus [4]): 2
MST (Plasmodium berghei [5]): 8 days
MST (Plasmodium berghei [10]): 29.8 days
MST (Plasmodium berghei [6]; 160 mg/kg): 13.2 days and 13.9 days
No. of cured (Mus musculus [7]): 4
Ratio [21]: 7.1
MST (Plasmodium berghei [8]): 20.8 days
MST (Mus musculus [22]): 28.9 days

CCN(CC)C1CCCC(Nc2nc(Nc3ccc(Cl)c(Cl)c3)nc3ccccc23)C1 (stereo unspecified)
MST (Plasmodium berghei [1]; 40 mg/kg): 5 days and 4.8 days
SD90 (Plasmodium berghei [2]): 17.5 mg/kg/day
MST (Plasmodium berghei [3]): 1 days
No. of cured (Mus musculus [4]): 5
MST (Plasmodium berghei [5]): 8 days
Ratio [23]: 4.2
No. of cured (Mus musculus [7]): 5
No. of cured (Mus musculus [16]): 2
MST (Plasmodium berghei [18]; 160 mg/kg): 22.8 days and 23.1 days

CCNCc1cc(Nc2nc(NC3CCC(N(C)C)CC3)c3ccccc3n2)ccc1OC (stereo unspecified)
MST (Plasmodium berghei [1]): 0.5 days
SD90 (Plasmodium berghei [2]): >69 mg/kg/day
MST (Plasmodium berghei [3]): 0.3 days
MST (Plasmodium berghei [5]): 2.7 days
MST (Plasmodium berghei [6]): 3.7 days
Ratio [24]: <1.1

CN(C)C1CCC(Nc2nc(Nc3ccc(Cl)c(Cl)c3)nc3ccccc23)CC1 (stereo in doubt; 22)
MST (Plasmodium berghei [1]; 40 mg/kg): 4.5 days and 4.1 days
SD90 (Plasmodium berghei [2]): 7.8 mg/kg/day
MST (Plasmodium berghei [3]; 20 mg/kg): 0.3 days
No. of cured (Mus musculus [4]): 4
No. of cured (Mus musculus [15]): 3
Ratio [25]: 9.6
MST (Plasmodium berghei [6]): 25.9 days
No. of cured (Mus musculus [16]): 4
MST (Plasmodium berghei [8]; 320 mg/kg): 25.9 days
MST (Mus musculus [17]): 11.4 days
MST (Plasmodium berghei [18]; 160 mg/kg): 22.9 days

CCN(CC)CCNc1nc(Nc2ccc(C(F)(F)F)cc2)nc2ccccc12
MST (Plasmodium berghei [1]; 40 mg/kg): 1.7 days and 1.1 days
No. of survivals (Mus musculus [26]): 1
SD90 (Plasmodium berghei [2]): 91 mg/kg/day
MST (Plasmodium berghei [3]): 0.3 days
MST (Plasmodium berghei [5]): 7.3 days
No. of survivals (Mus musculus [27]): 4
MST (Plasmodium berghei [6]): 8.9 days
Ratio [28]: 0.8
No. of survivals (Mus musculus [13]): 4

CCN(CC)C1CCC(Nc2nc(Nc3cc(Cl)cc(Cl)c3)nc3ccccc23)CC1 (stereo in doubt; 35)
No. of survivals (Mus musculus [26]; 160 mg/kg): 4 and 3
SD90 (Plasmodium berghei [2]): 8.5 mg/kg/day
MST (Plasmodium berghei [3]; 20 mg/kg): 5.5 days
No. of survivals (Mus musculus [4]): 5
No. of survivals [29]: 4
No. of survivals (Mus musculus [13]): 5
MST (Mus musculus [17]; 80 mg/kg): 21.9 days
No. of survivals (Mus musculus [30]): 2
No. of survivals [31]: 2
Ratio [32]: 8.8
MST (Mus musculus [33]): 9.6 days and 8.9 days
MST (Plasmodium berghei [18]; 160 mg/kg): 24.9 days
MST (Mus musculus [34]): 23.9 days

OC1CCCN(CCCNc2nc(Nc3ccc(I)cc3)nc3ccccc23)C1 (stereo unspecified)
MST (Plasmodium berghei [1]): 1.2 days
MST (Plasmodium berghei [3]): 1 days
MST (Plasmodium berghei [5]): 4 days
No. of survivals (Mus musculus [27]): 1
MST (Plasmodium berghei [10]): 20.1 days
MST (Plasmodium berghei [6]; 160 mg/kg): 8 days and 5.8 days
Ratio [35]: 3
No. of survivals (Mus musculus [13]): 2
MST (Plasmodium berghei [36]): 24.1 days
MST (Plasmodium berghei [8]): 13.1 days
SD90 (Mus musculus [37]): 25 mg/kg/day
MST (Mus musculus [33]): 0.8 days

CCN(CC)CCCC(C)Nc1nc(Nc2ccc([N+](=O)[O-])cc2)c2ccccc2n1 (stereo unspecified)
MST (Plasmodium berghei [1]; 40 mg/kg): 0.8 days and 0.6 days
MST (Plasmodium berghei [3]): 0 days
MST (Plasmodium berghei [5]): 1.4 days
MST (Plasmodium berghei [10]): 5 days
MST (Plasmodium berghei [6]; 160 mg/kg): 2.6 days and 3.2 days
No. of toxic deaths (Mus musculus [38]): 5
MST (Plasmodium berghei [36]): 4.3 days
No. of toxic deaths (Mus musculus [39]): 2
MST (Plasmodium berghei [8]): 5 days

CCN(CC)CCNc1nc(Nc2ccc(Cl)c(Cl)c2)nc2ccccc12
MST (Plasmodium berghei [1]): 1 days
SD90 (Plasmodium berghei [2]): 24 mg/kg/day
Ratio [40]: 3.1
MST (Plasmodium berghei [6]): 7 days
No. of survivals (Mus musculus [13]): 5

OC1CCCN(CCCNc2nc(Nc3nc(-c4ccccc4)cs3)nc3ccccc23)C1 (stereo unspecified)
MST (Plasmodium berghei [1]): 0.2 days
SD90 (Plasmodium berghei [2]): >147 mg/kg/day
MST (Plasmodium berghei [6]): 0.4 days
Ratio [41]: <0.5
MST (Plasmodium berghei [36]): 0.8 days
